Where two headings read alike, the source gives them in different places.
How the values were obtained:
Rhesus PDE2A3 = Rhesus PDE2A3 (Macaca mulatta, UniProt B3VTJ2); assay: PDE2 fluorescence polarization (IMAP FP) inhibition assay, rhesus enzyme; assay type: biochemical, rhesus macaque
How it was run: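 Rhesus PDE2A3 came from lysate of transiently transfected AD293 cells, diluted to give 20% substrate conversion. Substrate was 50 nM FAM-cAMP with 1 uM cGMP activator in Tris pH 7.2/MgCl2 buffer, run 60 min at room temperature over 10-point 3-fold dilutions in 1% DMSO. Read-out was IMAP fluorescence polarization (mP) after ≥1 h binding.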

human PDE2A1 = human PDE2A1 (Homo sapiens (Human), UniProt O00408); assay: IMAP FP PDE selectivity panel, human PDE2A1; assay type: biochemical
How it was run: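 GST-tagged human PDE2A1 expressed in insect cells, run at room temperature for 60 min with 50 nM FAM-cAMP containing 1000 nM cGMP, pH 7.2 Tris/MgCl2 buffer. IMAP fluorescence polarization read after binding step.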

[1] = Rhesus PDE2, Lab A, read-out: Rhesus PDE2 Ki (nM) - Lab A
[2] = Human PDE2, Lab A, read-out: Human PDE2 Ki (nM) - Lab A
[3] = Rhesus PDE2, Lab B, read-out: Rhesus PDE2 Ki (nM) - Lab B
[4] = Human PDE2, Lab B, read-out: Human PDE2 Ki (nM) - Lab B

human PDE2A1, sequence (O00408 other isoform, or with tags, fused parts or gaps): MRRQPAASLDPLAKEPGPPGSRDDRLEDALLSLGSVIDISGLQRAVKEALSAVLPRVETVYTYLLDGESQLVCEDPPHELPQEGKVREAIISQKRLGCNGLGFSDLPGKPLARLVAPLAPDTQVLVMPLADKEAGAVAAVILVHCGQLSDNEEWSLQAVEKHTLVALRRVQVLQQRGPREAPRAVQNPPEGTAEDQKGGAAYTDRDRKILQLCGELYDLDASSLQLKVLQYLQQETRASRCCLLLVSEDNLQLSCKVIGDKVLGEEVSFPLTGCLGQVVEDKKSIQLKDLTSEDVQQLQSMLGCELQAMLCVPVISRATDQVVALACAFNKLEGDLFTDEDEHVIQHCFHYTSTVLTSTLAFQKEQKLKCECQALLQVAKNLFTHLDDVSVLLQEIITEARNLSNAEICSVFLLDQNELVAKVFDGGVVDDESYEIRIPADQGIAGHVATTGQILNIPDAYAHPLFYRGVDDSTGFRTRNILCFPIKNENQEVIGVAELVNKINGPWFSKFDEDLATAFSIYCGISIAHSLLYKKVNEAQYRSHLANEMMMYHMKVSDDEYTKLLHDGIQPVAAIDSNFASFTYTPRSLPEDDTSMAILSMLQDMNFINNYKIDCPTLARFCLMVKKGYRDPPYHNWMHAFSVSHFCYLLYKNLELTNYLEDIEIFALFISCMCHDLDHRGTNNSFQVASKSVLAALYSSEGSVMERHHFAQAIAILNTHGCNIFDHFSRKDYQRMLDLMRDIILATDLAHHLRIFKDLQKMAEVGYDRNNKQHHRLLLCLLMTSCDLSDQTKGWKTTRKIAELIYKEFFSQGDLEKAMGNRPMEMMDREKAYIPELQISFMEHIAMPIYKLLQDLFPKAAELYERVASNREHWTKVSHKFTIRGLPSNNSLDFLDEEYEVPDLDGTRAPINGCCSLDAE
Rhesus PDE2A3, sequence (B3VTJ2 1-941): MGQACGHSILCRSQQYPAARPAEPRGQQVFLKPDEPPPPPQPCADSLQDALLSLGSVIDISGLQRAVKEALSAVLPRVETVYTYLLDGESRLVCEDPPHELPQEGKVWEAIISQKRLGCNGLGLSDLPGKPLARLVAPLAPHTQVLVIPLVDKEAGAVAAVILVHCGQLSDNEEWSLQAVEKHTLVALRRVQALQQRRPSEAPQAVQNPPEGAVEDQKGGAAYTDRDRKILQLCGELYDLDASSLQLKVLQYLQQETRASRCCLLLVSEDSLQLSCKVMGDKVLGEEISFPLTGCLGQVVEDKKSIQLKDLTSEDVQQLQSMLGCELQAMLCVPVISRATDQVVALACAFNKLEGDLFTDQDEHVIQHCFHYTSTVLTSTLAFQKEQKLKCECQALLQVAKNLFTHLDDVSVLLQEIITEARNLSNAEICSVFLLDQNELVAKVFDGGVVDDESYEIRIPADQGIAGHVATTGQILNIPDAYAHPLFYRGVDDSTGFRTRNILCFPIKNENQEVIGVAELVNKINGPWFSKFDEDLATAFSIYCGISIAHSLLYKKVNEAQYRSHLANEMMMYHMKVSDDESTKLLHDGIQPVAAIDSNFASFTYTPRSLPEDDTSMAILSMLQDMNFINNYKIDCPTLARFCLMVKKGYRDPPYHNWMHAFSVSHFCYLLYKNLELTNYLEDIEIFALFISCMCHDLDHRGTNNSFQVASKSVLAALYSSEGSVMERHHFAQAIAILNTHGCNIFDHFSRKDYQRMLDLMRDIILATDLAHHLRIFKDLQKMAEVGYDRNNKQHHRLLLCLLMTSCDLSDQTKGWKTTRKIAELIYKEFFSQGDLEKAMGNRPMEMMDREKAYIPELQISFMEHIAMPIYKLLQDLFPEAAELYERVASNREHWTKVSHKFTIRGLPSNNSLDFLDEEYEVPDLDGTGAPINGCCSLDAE

| Compound | Ki (Rhesus PDE2A3; [1]) | Ki (human PDE2A1; [2]) | Ki (Rhesus PDE2A3; [3]) | Ki (human PDE2A1; [4]) |
| --- | --- | --- | --- | --- |
| COCc1nc(C(=O)N[C@@H](c2ccc(C(F)(F)F)c(F)c2)C2CC2)cc(=O)[nH]1 [Example 115, N-{(R)-cyclopropyl[3-fluoro-4-(trifluoromethyl)phenyl]methyl}-2-(methoxymethyl)-6-oxo-1,6-dihydropyrimidine-4-carboxamide] | 73 nM | 15 nM | – | – |
| CC[C@@H](NC(=O)c1cc(=O)[nH]c(C2CC2)n1)c1ccc(SC(F)(F)F)c(F)c1 [Example 246, 2-cyclopropyl-N-[(1R)-1-{3-fluoro-4-[(trifluoromethyl)sulfanyl]phenyl}propyl]-6-oxo-1,6-dihydropyrimidine-4-carboxamide] | 3.1 nM | – | 5.4 nM | 5.2 nM |
| COc1ccc(Cc2nc(C(=O)N[C@@H](c3ccc(SC(F)(F)F)c(F)c3)C(C)C)cc(=O)[nH]2)cc1 [Example 470, N-[(1R)-1-{3-fluoro-4-[(trifluoromethyl)sulfanyl]phenyl}-2-methylpropyl]-2-(4-methoxybenzyl)-6-oxo-1,6-dihydropyrimidine-4-carboxamide] | – | – | 1.2 nM | 1.3 nM |
| O=C(NC1(c2ccc(OC(F)(F)F)c(F)c2)CC1)c1cc(=O)[nH]c(C2CC2)n1 [Example 201] | 4.4 nM | 2.8 nM | – | – |
| Cc1nc(C(=O)N[C@@H](c2ccc(C3CC3)c(F)c2)C(C)(C)C)cc(=O)[nH]1 [Example 428, N-[(1R)-1-(4-cyclopropyl-3-fluorophenyl)-2,2-dimethylpropyl]-2-methyl-6-oxo-1,6-dihydropyrimidine-4-carboxamide] | – | – | 1.9 nM | 1.8 nM |
| COc1ccc(Cc2nc(C(=O)N[C@@H](c3ccc(OC(F)(F)F)cc3)C3CC3)cc(=O)[nH]2)cc1F [Example 524, N-{(R)-cyclopropyl[4-(trifluoromethoxy)phenyl]methyl}-2-(3-fluoro-4-methoxybenzyl)-6-oxo-1,6-dihydropyrimidine-4-carboxamide] | – | – | 2.1 nM | 2.1 nM |
| C[C@@H](NC(=O)c1cc(=O)[nH]c(-c2ccccc2)n1)c1ccc(-c2ccccc2)cc1 [Example 279, N-[(1R)-1-biphenyl-4-ylethyl]-6-oxo-2-phenyl-1,6-dihydropyrimidine-4-carboxamide] | 24 nM | 16 nM | – | – |
| Cc1nc(C(=O)N[C@@H](c2ccc(C(F)(F)F)cc2)C2(C)CC2)cc(=O)[nH]1 [Example 612, 2-methyl-N-{(R)-(1-methylcyclopropyl)[4-(trifluoromethyl)phenyl]methyl}-6-oxo-1,6-dihydropyrimidine-4-carboxamide] | – | – | 11 nM | 11 nM |
| CC1(C(NC(=O)c2cc(=O)[nH]c(C3CC3)n2)c2ccc(SC(F)(F)F)c(F)c2)CC1 (single isomer, unassigned) [Example 704, (R)- or (S)-2-cyclopropyl-N-((3 fluoro-4-((trifluorormethyl)thio)phenyl)(1-methylcyclopropyl)methyl)-6-oxo-1,6-dihydropyrimidine-4-carboxamide] | – | – | 4.7 nM | 3.6 nM |
| CC(C)(NC(=O)c1cc(=O)[nH]c(C2CC2)n1)c1ccc(C(F)(F)F)c(F)c1 [Example 200, 2-cyclopropyl-N-{1-[3-fluoro-4-(trifluoromethyl)phenyl]-1-methylethyl}-6-oxo-1,6-dihydropyrimidine-4-carboxamide] | 16 nM | 9.2 nM | – | – |
| Cc1nc(C(=O)N[C@@H](c2ccc(C3CC3)c(F)c2)C2CC2)cc(=O)[nH]1 [Example 426, N-[(R)-cyclopropyl(4-cyclopropyl-3-fluorophenyl)methyl]-2-methyl-6-oxo-1,6-dihydropyrimidine-4-carboxamide] | – | – | 9.1 nM | 9.5 nM |
| CC[C@@H](NC(=O)c1cc(=O)[nH]c(C(C)(C)c2ccc(OC)cc2)n1)c1ccc(OC(F)(F)F)c(F)c1 [Example 504, N-{(1R)-1-[3-fluoro-4-(trifluoromethoxy)phenyl]propyl}-2-[1-(4-methoxyphenyl)-1-methylethyl]-6-oxo-1,6-dihydropyrimidine-4-carboxamide] | – | – | 42 nM | 30 nM |
| COCc1nc(C(=O)N[C@H](C)c2ccc(OC(F)(F)F)c(F)c2)cc(=O)[nH]1 [Example 126, N-{(1R)-1-[3-fluoro-4-(trifluoromethoxy)phenyl]-ethyl}-2-(methoxymethyl)-6-oxo-1,6-dihydropyrimidine-4-carboxamide] | 48 nM | ~11 nM | 61 nM | 64 nM |
| CC(C)c1ccc([C@@H](C)NC(=O)c2cc(=O)[nH]c(C3CC3)n2)cc1 [Example 298, 2-cyclopropyl-N-{(1R)-1-[4-(1-methylethyl)phenyl]ethyl}-6-oxo-1,6-dihydropyrimidine-4-carboxamide] | 18 nM | 13 nM | – | – |
| CSCC(NC(=O)c1cc(=O)[nH]c(C)n1)c1ccc(C(F)(F)F)cc1 (stereo not drawn) [Example 131, 2-methyl-N-{2-(methylsulfanyl)-1-[4-(trifluoromethyl)phenyl]ethyl}-6-oxo-1,6-dihydropyrimidine-4-carboxamide] | 170 nM | 123 nM | – | – |
| COCc1nc(C(=O)N[C@@H](c2ccc(SC(F)(F)F)cc2)C(C)C)cc(=O)[nH]1 [Example 120, 2-(methoxymethyl)-N-[(1R)-2-methyl-1-{4-[(trifluoromethyl)sulfanyl]phenyl}propyl]-6-oxo-1,6-dihydropyrimidine-4-carboxamide] | 8.7 nM | 4.2 nM | – | – |
| CC(C)[C@@H](NC(=O)c1cc(=O)[nH]c(-c2ncccn2)n1)c1ccc(OC(F)(F)F)c(F)c1 [Example 74, N-{(1R)-1-[3-fluoro-4-(trifluoromethoxy)phenyl]-2-methylpropyl}-6-oxo-1,6-dihydro-2,2′-bipyrimidine-4-carboxamide] | 5 nM | – | 4.8 nM | 4.7 nM |

Continued, values first:

| Ki (Rhesus PDE2A3; [1]) | Ki (human PDE2A1; [2]) | Ki (Rhesus PDE2A3; [3]) | Ki (human PDE2A1; [4]) | Compound |
| --- | --- | --- | --- | --- |
| 15 nM | – | 51 nM | 54 nM | O=C(NC1(c2ccc(SC(F)(F)F)c(F)c2)CC1)c1cc(=O)[nH]c(-c2ccccc2)n1 [Example 352, N-(1-{3-fluoro-4-[(trifluoromethyl)sulfanyl]phenyl}cyclopropyl)-6-oxo-2-phenyl-1,6-dihydropyrimidine-4-carboxamide] |
| – | – | 1.9 nM | 2 nM | COc1ccc(Cc2nc(C(=O)N[C@@H](c3ccc(SC(F)(F)F)cc3)C3CC3)cc(=O)[nH]2)cc1 [Example 479, N-[(R)-cyclopropyl{4-[(trifluoromethyl)sulfanyl]phenyl}methyl]-2-(4-methoxybenzyl)-6-oxo-1,6-dihydropyrimidine-4-carboxamide] |
| 124 nM | – | 209 nM | 179 nM | Cc1nc(C(=O)NC(C)(C)c2ccc(SC(F)(F)F)c(F)c2)cc(=O)[nH]1 [Example 259, N-(1-{3-fluoro-4-[(trifluoromethyl)sulfanyl]phenyl}-1-methylethyl)-2-methyl-6-oxo-1,6-dihydropyrimidine-4-carboxamide] |
| – | – | 0.68 nM | 0.6 nM | COc1ccc(Cc2nc(C(=O)N[C@@H](c3ccc(C(F)(F)F)cc3)C(C)(C)C)cc(=O)[nH]2)cc1 [Example 455, N-{(1R)-2,2-dimethyl-1-[4-(trifluoromethyl)phenyl]propyl}-2-(4-methoxybenzyl)-6-oxo-1,6-dihydropyrimidine-4-carboxamide] |
| 8.3 nM | 4.6 nM | – | – | CC[C@@H](NC(=O)c1cc(=O)[nH]c(C2CC2)n1)c1ccc(OC(F)(F)F)cc1 [Example 225, 2-cyclopropyl-6-oxo-N-{(1R)-1-[4-(trifluoromethoxy)phenyl]propyl}-1,6-dihydropyrimidine-4-carboxamide] |
| 1420 nM | 565 nM | – | – | Cc1nc(C(=O)NC(C(=O)N(C)C)c2ccc(C(F)(F)F)cc2)cc(=O)[nH]1 (stereo not drawn) [Example 329, N-{2-(dimethylamino)-2-oxo-1-[4-(trifluoromethyl)phenyl]ethyl}-2-methyl-6-oxo-1,6-dihydropyrimidine-4-carboxamide] |
| – | – | 1.6 nM | 1.7 nM | COc1ccc(Cc2nc(C(=O)N[C@@H](c3ccc(C(F)(F)F)c(F)c3)C(C)C)cc(=O)[nH]2)cc1 [Example 472, N-{(1R)-1-[3-fluoro-4-(trifluoromethyl)phenyl]-2-methylpropyl}-2-(4-methoxybenzyl)-6-oxo-1,6-dihydropyrimidine-4-carboxamide] |
| 245 nM | – | 356 nM | 354 nM | CC(NC(=O)c1cc(=O)[nH]c(-c2ccccc2)n1)c1ccc(-n2cncn2)cc1 (stereo not drawn) [Example 363, 6-oxo-2-phenyl-N-{1-[4-(1H-1,2,4-triazol-1-yl)phenyl]ethyl}-1,6-dihydropyrimidine-4-carboxamide] |
| 218 nM | 184 nM | – | – | Cc1nc(C(=O)NC2(c3ccc(SC(F)(F)F)c(F)c3)CCC2)cc(=O)[nH]1 [Example 129, N-(1-{3-fluoro-4-[(trifluoromethyl)sulfanyl]phenyl}cyclobutyl)-2-methyl-6-oxo-1,6-dihydropyrimidine-4-carboxamide] |
| – | – | 3.1 nM | 3 nM | CC[C@@H](NC(=O)c1cc(=O)[nH]c(Cc2ccc(OC)c(F)c2)n1)c1ccc(C(F)(F)F)c(F)c1 [Example 527, 2-(3-fluoro-4-methoxybenzyl)-N-{(1R)-1-[3-fluoro-4-(trifluoromethyl)phenyl]propyl}-6-oxo-1,6-dihydropyrimidine-4-carboxamide] |
| 133 nM | 82 nM | – | – | CC(C)(NC(=O)c1cc(=O)[nH]c(-c2ccccc2)n1)c1ccc(OC(F)(F)F)cc1 [Example 281, N-{1-methyl-1-[4-(trifluoromethoxy)phenyl]ethyl}-6-oxo-2-phenyl-1,6-dihydropyrimidine-4-carboxamide] |

From patent US9815796B2 (Merck Sharp & Dohme Corp., priority 2013, dated 2017)
